Experimental data as given in patent US10670605B2, “Cysteine reactive probes and uses thereof” (The Scripps Research Institute, priority 2015, dated 2020).
Where a name gives a salt, the structure may show the parent alone.

What was measured:
Assay in all cases: isoTOP-ABPP of compound-treated primary human T cells
Type in all cases: cell-based
[1] = biological target: T1, Cys residues in primary human T cells (Homo sapiens, UniProt Q96I15); conditions: SCLY C22 (Q96115)
T1 sequence (Q96I15 1-445): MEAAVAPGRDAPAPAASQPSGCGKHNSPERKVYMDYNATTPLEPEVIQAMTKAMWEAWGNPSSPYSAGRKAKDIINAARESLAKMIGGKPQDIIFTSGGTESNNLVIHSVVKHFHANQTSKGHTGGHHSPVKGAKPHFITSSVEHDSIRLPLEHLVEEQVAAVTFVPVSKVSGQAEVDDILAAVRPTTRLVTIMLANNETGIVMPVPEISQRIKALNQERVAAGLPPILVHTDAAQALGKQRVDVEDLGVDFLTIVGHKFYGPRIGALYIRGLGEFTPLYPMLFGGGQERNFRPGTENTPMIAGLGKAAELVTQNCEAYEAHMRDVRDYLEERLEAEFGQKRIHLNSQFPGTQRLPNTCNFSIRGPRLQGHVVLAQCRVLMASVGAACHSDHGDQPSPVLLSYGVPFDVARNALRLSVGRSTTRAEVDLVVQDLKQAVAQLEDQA

[2] = biological target: T2, Cys residues in primary human T cells (Homo sapiens, UniProt Q13045); conditions: FLU Protein flightless-1 homolog C46 (Q13045)
T2 sequence (Q13045 1-1269): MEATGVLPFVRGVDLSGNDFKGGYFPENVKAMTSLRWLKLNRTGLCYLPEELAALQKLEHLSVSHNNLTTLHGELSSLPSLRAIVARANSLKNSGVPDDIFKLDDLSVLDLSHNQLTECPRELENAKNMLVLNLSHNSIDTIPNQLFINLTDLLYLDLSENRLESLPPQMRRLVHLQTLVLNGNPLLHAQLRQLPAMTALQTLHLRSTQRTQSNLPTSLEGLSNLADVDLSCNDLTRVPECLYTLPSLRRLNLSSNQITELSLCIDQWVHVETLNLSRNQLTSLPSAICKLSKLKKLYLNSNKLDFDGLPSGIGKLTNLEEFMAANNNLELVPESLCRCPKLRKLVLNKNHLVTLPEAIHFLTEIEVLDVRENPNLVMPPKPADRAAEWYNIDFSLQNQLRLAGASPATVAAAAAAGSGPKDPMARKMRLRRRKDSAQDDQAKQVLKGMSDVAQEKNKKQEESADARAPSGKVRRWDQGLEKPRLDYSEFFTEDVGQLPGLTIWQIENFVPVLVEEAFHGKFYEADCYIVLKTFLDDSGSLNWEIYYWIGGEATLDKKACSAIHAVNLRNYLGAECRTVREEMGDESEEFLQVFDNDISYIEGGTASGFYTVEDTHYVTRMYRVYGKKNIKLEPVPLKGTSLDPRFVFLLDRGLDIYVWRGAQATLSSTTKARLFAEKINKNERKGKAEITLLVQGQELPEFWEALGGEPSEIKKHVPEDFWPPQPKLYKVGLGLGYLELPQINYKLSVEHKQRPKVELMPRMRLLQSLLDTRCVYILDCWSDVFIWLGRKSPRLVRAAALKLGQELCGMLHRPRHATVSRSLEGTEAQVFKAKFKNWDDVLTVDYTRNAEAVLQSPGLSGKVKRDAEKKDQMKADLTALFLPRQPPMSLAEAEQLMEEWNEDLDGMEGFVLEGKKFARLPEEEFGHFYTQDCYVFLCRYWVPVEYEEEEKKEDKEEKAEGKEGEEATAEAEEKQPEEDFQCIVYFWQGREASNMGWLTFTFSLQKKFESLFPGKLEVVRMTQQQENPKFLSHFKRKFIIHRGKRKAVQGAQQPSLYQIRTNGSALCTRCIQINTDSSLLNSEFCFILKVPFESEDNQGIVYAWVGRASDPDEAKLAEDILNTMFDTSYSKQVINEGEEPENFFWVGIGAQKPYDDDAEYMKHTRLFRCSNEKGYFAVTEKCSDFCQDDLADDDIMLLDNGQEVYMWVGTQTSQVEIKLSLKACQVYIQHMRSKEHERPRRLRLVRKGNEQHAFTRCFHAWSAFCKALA

[3] = system: Cys residues in primary human T cells; conditions: 4 h
[4] = biological target: T3, Cys residues in primary human T cells (Homo sapiens, UniProt Q9Y277)
T3 sequence (Q9Y277 1-283): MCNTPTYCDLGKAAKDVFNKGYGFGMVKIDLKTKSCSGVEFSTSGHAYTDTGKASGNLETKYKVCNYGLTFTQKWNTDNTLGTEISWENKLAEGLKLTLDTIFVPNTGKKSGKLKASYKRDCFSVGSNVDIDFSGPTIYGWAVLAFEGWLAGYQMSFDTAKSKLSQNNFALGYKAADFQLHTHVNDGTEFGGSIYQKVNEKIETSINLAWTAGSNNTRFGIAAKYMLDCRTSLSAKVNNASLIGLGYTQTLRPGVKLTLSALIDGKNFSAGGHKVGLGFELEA

## COC(=O)/C=C/C(=O)OC [DMF, dimethyl fumarate]
[1]; DMF 10 μM 4h
  R value (DMSO/DMF): 1.31
[1]; DMF 25 μM 4h
  R value (DMSO/DMF): 2.16
[1]; DMF 50 μM 1h
  R value (DMSO/DMF): 1.9
[1]; DMF 50 μM 2h
  R value (DMSO/DMF): 2.16
[1]; DMF 50 μM 4h
  R value (DMSO/DMF): 4.04
[2]; DMF 10 μM 4h
  R value (DMSO/DMF): 1.55
[2]; DMF 50 μM 1h
  R value (DMSO/DMF): 2.05
[2]; DMF 50 μM 2h
  R value (DMSO/DMF): 3.57
[2]; DMF 50 μM 4h
  R value (DMSO/DMF): 4.5
[3]; 10 μM
  DMF-sensitive Cys residues detected: very few
[3]; 50 μM
  number of Cys residues with R value >4 (of more than 2400 quantified): ~40
[4]; VDAC3 C36 (Q9Y277), DMF 50 μM 1h
  R value (DMSO/DMF): 3.21
[4]; VDAC3 C36 (Q9Y277), DMF 50 μM 2h
  R value (DMSO/DMF): 3.98
[4]; VDAC3 C36 (Q9Y277), DMF 50 μM 4h
  R value (DMSO/DMF): 4.11
[4]; VDAC3 C65 (Q9Y277), DMF 10 μM 4h
  R value (DMSO/DMF): 1.73
[4]; VDAC3 C65 (Q9Y277), DMF 25 μM 4h
  R value (DMSO/DMF): 5.64
[4]; VDAC3 C65 (Q9Y277), DMF 50 μM 1h
  R value (DMSO/DMF): 3.35
[4]; VDAC3 C65 (Q9Y277), DMF 50 μM 2h
  R value (DMSO/DMF): 7.53
[4]; VDAC3 C65 (Q9Y277), DMF 50 μM 4h
  R value (DMSO/DMF): 15.94
